US9540391B2, “Isomannide derivatives as inhibitors of soluble epoxide hydrolase” (SANOFI, priority 2013, dated 2017)
Structures can show the parent of a compound that is named as a salt.

Target: T1, recombinant sEH (Homo sapiens, UniProt P34913)
T1 construct: made in house; host or cells: Sf9 insect cells
T1 sequence (P34913 1-555): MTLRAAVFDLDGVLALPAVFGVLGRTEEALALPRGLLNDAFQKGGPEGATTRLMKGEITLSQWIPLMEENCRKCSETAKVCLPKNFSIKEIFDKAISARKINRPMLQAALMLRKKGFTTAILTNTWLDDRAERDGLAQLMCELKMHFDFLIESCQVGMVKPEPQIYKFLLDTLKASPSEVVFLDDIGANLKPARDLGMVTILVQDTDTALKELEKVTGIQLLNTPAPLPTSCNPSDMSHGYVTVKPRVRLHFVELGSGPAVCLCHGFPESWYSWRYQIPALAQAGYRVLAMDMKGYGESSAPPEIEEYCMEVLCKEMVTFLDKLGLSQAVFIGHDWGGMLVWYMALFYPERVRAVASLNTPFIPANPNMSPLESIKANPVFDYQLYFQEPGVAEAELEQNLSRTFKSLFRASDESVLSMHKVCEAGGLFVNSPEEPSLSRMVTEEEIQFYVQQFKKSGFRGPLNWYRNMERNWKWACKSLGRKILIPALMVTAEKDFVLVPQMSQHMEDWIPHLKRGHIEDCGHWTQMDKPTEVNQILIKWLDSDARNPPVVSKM
Test: biochemical screening assay for inhibition of soluble epoxide hydrolase (fluorometric, Phome substrate)
Outline: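 Reading fluorescence before substrate addition and after completion corrected for autofluorescence. Reaction: 5 μM Phome, 2 nM recombinant human sEH (Sf9-expressed), compound 0.0001–10 μM, 25 mM Hepes with 0.01% albumin, 15 min pre-incubation then 60 min at 30 °C; IC50 derived from % inhibition.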

Row | SMILES | IC50
1 | O=C(NC1CCCCC1)N[C@H]1CO[C@H]2[C@@H]1OC[C@@H]2Oc1ccccc1-c1nnn[nH]1 [Example 26, 1-Cyclohexyl-3-{(3S,3aR,6S,6aS)-6-[2-(1H-tetrazol-5-yl)-phenoxy]-hexahydro-furo[3,2-b]furan-3-yl}-urea] | 454 nM
2 | O=C(N[C@H]1CO[C@H]2[C@@H]1OC[C@@H]2Oc1ccc(F)cc1)N[C@H]1CCC[C@@H]1OCc1ccccc1 [Example 153, 1-((1S,2S)-2-Benzyloxy-cyclopentyl)-3-[(3S,3aR,6S,6aS)-6-(4-fluoro-phenoxy)-hexahydro-furo[3,2-b]furan-3-yl]-urea] | 62 nM
3 | O=C(NC1CCCCC1)N[C@H]1CO[C@H]2[C@@H]1OC[C@@H]2Oc1ccc(C(=O)N2CCOCC2)cc1 [Example 120, 1-Cyclohexyl-3-{(3S,3aR,6S,6aS)-6-[4-(morpholine-4-carbonyl)-phenoxy]-hexahydro-furo[3,2-b]furan-3-yl}-urea] | 7 nM
4 | O=C(NC1CCCCC1)N[C@H]1CO[C@H]2[C@@H]1OC[C@@H]2Oc1cccc(Br)c1 [Example 139, 1-[(3S,3aR,6S,6aS)-6-(3-Bromo-phenoxy)-hexahydro-furo[3,2-b]furan-3-yl]-3-cyclohexyl-urea] | 2 nM
5 | O=C(Nc1ccc(OC(F)(F)F)cc1)N[C@H]1CO[C@H]2[C@@H]1OC[C@@H]2/C=C\c1ccsc1 [Example 345, 1-[(3S,3aR,6S,6aR)-6-((Z)-2-Thiophen-3-yl-vinyl)-hexahydro-furo[3,2-b]furan-3-yl]-3-(4-trifluoromethoxy-phenyl)-urea] | 11 nM
6 | CC(=O)NCCS[C@H]1CO[C@H]2[C@@H]1OC[C@@H]2NC(=O)NC1CCCCC1 [Example 16, N-{2-[(3S,3aS,6S,6aR)-6-(3-Cyclohexyl-ureido)-hexahydro-furo[3,2-b]furan-3-ylsulfanyl]-ethyl}-acetamide] | 8 nM
7 | CC1(c2ccc(O[C@H]3CO[C@H]4[C@@H]3OC[C@@H]4NC(=O)NC3CCCCC3)cc2)CCCCC1 [Example 124, 1-Cyclohexyl-3-{(3S,3aR,6S,6aS)-6-[4-(1-methyl-cyclohexyl)-phenoxy]-hexahydro-furo[3,2-b]furan-3-yl}-urea] | 4 nM
8 | Cc1ncccc1O[C@H]1CO[C@H]2[C@@H]1OC[C@@H]2NC(=O)NC1CC(=O)N(C(C)C)C1 (stereo partly drawn) [Example 246, 1-(1-Isopropyl-5-oxo-pyrrolidin-3-yl)-3-[(3S,3aR,6S,6aS)-6-(2-methyl-pyridin-3-yloxy)-hexahydro-furo[3,2-b]furan-3-yl]-urea] | 317 nM
9 | Cc1ncccc1O[C@H]1CO[C@H]2[C@@H]1OC[C@@H]2NC(=O)NC1CCOC(C)C1 (stereo partly drawn) [Example 91, 1-[(3S,3aR,6S,6aS)-6-(2-methyl-pyridin-3-yloxy)-hexahydro-furo[3,2-b]furan-3-yl]-3-(2-methyl-tetrahydro-pyran-4-yl)-urea] | 22 nM
10 | O=C(O)CC[C@H]1CO[C@H]2[C@@H]1OC[C@@H]2NC(=O)NC1CCCCC1 [Example 377, 3-[(3S,3aR,6S,6aR)-6-(3-cyclohexyl-ureido)-hexahydro-furo[3,2-b]furan-3-yl]-propionic acid] | 2940 nM
11 | Cc1ncccc1O[C@H]1CO[C@H]2[C@@H]1OC[C@@H]2NC(=O)NC1CCCCC1(F)F (stereo partly drawn) [Example 277, 1-(2,2-Difluoro-cyclohexyl)-3-[(3S,3aR,6S,6aS)-6-(2-methyl-pyridin-3-yloxy)-hexahydro-furo[3,2-b]furan-3-yl]-urea] | 2 nM
12 | O=C(NC1CCCCC1)N[C@H]1CO[C@H]2[C@@H]1OC[C@@H]2Sc1ccccn1 [Example 54, 1-Cyclohexyl-3-[(3S,3aR,6S,6aS)-6-(pyridin-2-ylsulfanyl)-hexahydro-furo[3,2-b]furan-3-yl]-urea] | 1 nM
13 | Cc1ncccc1O[C@H]1CO[C@H]2[C@@H]1OC[C@@H]2NC(=O)NCC1C[C@@H]2CC[C@H]1O2 (stereo partly drawn) [Example 239, 1-[(3S,3aR,6S,6aS)-6-(2-Methyl-pyridin-3-yloxy)-hexahydro-furo[3,2-b]furan-3-yl]-3-[(1R,4S)-1-(7-oxa-bicyclo[2.2.1]hept-2-yl)methyl]-urea] | 78 nM
14 | CSc1cccc(NC(=O)N[C@H]2CO[C@H]3[C@@H]2OC[C@@H]3C#Cc2ccsc2)c1 [Example 312, 1-(3-Methylsulfanyl-phenyl)-3-((3S,3aR,6S,6aR)-6-thiophen-3-ylethynyl-hexahydro-furo[3,2-b]furan-3-yl)-urea] | 107 nM
15 | O=C(NC1CCCCC1)NC1COC2C(C#Cc3ccccc3)COC12 [Example 282, 1-Cyclohexyl-3-((3S,3aR,6S,-6aR)-6-phenylethynyl-hexa-hydro-furo[3,2-b]furan-3-yl)-urea] | 12 nM
16 | Cc1ncccc1O[C@H]1CO[C@H]2[C@@H]1OC[C@@H]2NC(=O)NCCOC(C)(C)C [Example 217, 1-(2-tert-Butoxy-ethyl)-3-[(3S,3aR,6S,6aS)-6-(2-methyl-pyridin-3-yloxy)-hexahydro-furo[3,2-b]furan-3-yl]-urea] | 371 nM
17 | Cc1ncccc1O[C@H]1CO[C@H]2[C@@H]1OC[C@@H]2NC(=O)NC1(C#N)CCCCC1 [Example 220, 1-(1-Cyano-cyclohexyl)-3-[(3S,3aR,6S,6aS)-6-(2-methyl-pyridin-3-yloxy)-hexahydro-furo[3,2-b]furan-3-yl]-urea] | 506 nM
18 | O=C(Nc1ccc2c(c1)CCC2)N[C@H]1CO[C@H]2[C@@H]1OC[C@@H]2C#Cc1ccsc1 [Example 310, 1-Indan-5-yl-3-((3S,3aR,6S,6aR)-6-thiophen-3-ylethynyl-hexahydro-furo[3,2-b]furan-3-yl)-urea] | 73 nM
19 | Cc1ncccc1O[C@H]1CO[C@H]2[C@@H]1OC[C@@H]2NC(=O)NCc1ccccc1OC(F)(F)F [Example 179, 1-[(3S,3aR,6S,6aS)-6-(2-Methyl-pyridin-3-yloxy)-hexahydro-furo[3,2-b]furan-3-yl]-3-(2-trifluoromethoxy-benzyl)-urea] | < 1 nM
20 | Cc1cnc(S[C@H]2CO[C@H]3[C@@H]2OC[C@@H]3NC(=O)NC2CCCCC2)nc1 [Example 50, 1-Cyclohexyl-3-[(3S,3aR,6S,6aS)-6-(5-methyl-pyrimidin-2-ylsulfanyl)-hexahydro-furo[3,2-b]furan-3-yl]-urea; hydrochloride] | 10 nM
21 | Cc1ncccc1O[C@H]1CO[C@H]2[C@@H]1OC[C@@H]2NC(=O)NC1CCOc2ccccc21 (stereo partly drawn) [Example 207, 1-Chroman-4-yl-3-[(3S,3aR,6S,6aS)-6-(2-methyl-pyridin-3-yloxy)-hexa-hydro-furo[3,2-b]furan-3-yl]-urea] | 3 nM
22 | O=C(NC1CCCCC1)N[C@H]1CO[C@H]2[C@@H]1OC[C@@H]2Oc1cccc2c1CCC2=O [Example 144, 1-Cyclohexyl-3-[(3S,3aR,6S,6aS)-6-(1-oxo-indan-4-yloxy)-hexahydro-furo[3,2-b]furan-3-yl]-urea] | 1 nM
23 | Cc1ncccc1O[C@H]1CO[C@H]2[C@@H]1OC[C@@H]2NC(=O)N[C@@H]1C[C@H](C)CC[C@H]1C(C)C [Example 174, 1-((1R,2S,5R)-2-Isopropyl-5-methyl-cyclohexyl)-3-[(3S,3aR,6S,6aS)-6-(2-methyl-pyridin-3-yloxy)-hexa-hydro-furo[3,2-b]furan-3-yl]-urea] | 31 nM
24 | O=C(Nc1ccc(OC(F)(F)F)cc1)N[C@H]1CO[C@H]2[C@@H]1OC[C@@H]2/C=C\c1ccccc1 [Example 332, 1-[(3S,3aR,6S,6aR)-6-((Z)-Styryl)-hexahydro-furo[3,2-b]furan-3-yl]-3-(4-trifluoromethoxy-phenyl)-urea] | 11 nM
25 | Cc1ncccc1O[C@H]1CO[C@H]2[C@@H]1OC[C@@H]2NC(=O)NCc1cccnc1 [Example 177, 1-[(3S,3aR,6S,6aS)-6-(2-Methyl-pyridin-3-yloxy)-hexahydro-furo[3,2-b]furan-3-yl]-3-pyridin-3-ylmethyl-urea] | 456 nM
26 | CO[C@H]1COCC[C@H]1NC(=O)N[C@H]1CO[C@H]2[C@@H]1OC[C@@H]2Oc1cccnc1C [Example 93, (R)-1-((R)-3-methoxy-tetrahydro-pyran-4-yl)-3-[(3S,3aR,6S,6aS)-6-(2-methyl-pyridin-3-yloxy)-hexahydro-furo[3,2-b]furan-3-yl]-urea] | 32 nM
27 | O=C(NC1CCCCC1)N[C@H]1CO[C@H]2[C@@H]1OC[C@@H]2Oc1ccc(N2CCCC2)nc1 [Example 70, 1-cyclohexyl-3-[(3S,3aR,6S,6aS)-6-(6-pyrrolidin-1-yl-pyridin-3-yloxy)-hexahydro-furo[3,2-b]furan-3-yl]-urea] | 1 nM
28 | Cc1nc(S[C@H]2CO[C@H]3[C@@H]2OC[C@@H]3NC(=O)NC2CCCCC2)sc1C [Example 62, 1-Cyclohexyl-3-[(3S,3aR,6S,6aS)-6-(4,5-dimethyl-thiazol-2-ylsulfanyl)-hexahydro-furo[3,2-b]furan-3-yl]-urea] | 1 nM
29 | O=C(NCCc1ccccc1)N[C@H]1CO[C@H]2[C@@H]1OC[C@@H]2C#Cc1ccsc1 [Example 314, 1-Phenethyl-3-((3S,3aR,6S,-6aR)-6-thiophen-3-ylethynyl-hexahydro-furo[3,2-b]furan-3-yl)-urea] | 33 nM
30 | O=C(NCCc1cccs1)N[C@H]1CO[C@H]2[C@@H]1OC[C@@H]2C#Cc1ccccc1 [Example 296, 1-((3S,3aR,6S,6aR)-6-Phenylethynyl-hexahydro-furo[3,2-b]furan-3-yl)-3-(2-thiophen-2-yl-ethyl)-urea] | 100 nM
